Experimental data: patent publication US10736906B2, “Method to enhance tissue regeneration” (CHILDREN'S MEDICAL CENTER CORPORATION, priority 2006, dated 2020)

Assays:
liver growth [1] = assay: chart of prostaglandin derivatives: relative potency to increase liver growth; details: zebrafish, in vivo
Excerpt: Another embodiment of the present invention provides for compositions and methods that modulate vertebrate tissue growth or regeneration via the prostaglandin signaling pathway. For example, prostaglandin E2 enhances vertebrate tissue regeneration. A chemical screen in zebrafish identified the prostaglandin signaling pathway as a potent modifier of liver growth during embryonic development. […] As many molecular pathways controlling embryonic development mediate tissue homeostasis in the adult, the effects of prostaglandin signaling during liver regeneration were examined. […] Fish were revived and allowed to heal in fish water.

liver growth [2] = assay: liver growth, early experimental evidence; assay type: in vivo
[3] = tested on: cKit+Sca1+ Lineage- (KSL) bone marrow cells; assay: murine transplantation assay with purified HSCs, CFU-S12; assay type: in vivo, mice
Method: To assess whether prostaglandin levels regulate wnt activity in HSCs, murine transplantation assays were performed utilizing purified HSCs. FACS-isolated cKit+Sca1+ Lineage—(KSL) bone marrow cells were transplanted into lethally irradiated recipients.

[4] = tested on: hematopoietic stem cells (HSCs); assay: HSC formation in zebrafish embryos (runx1, c-myb expression), with heat-shock inducible wnt modulators; assay type: in vivo
Method: The functional consequences of the PGE2/wnt interaction in HSC formation during embryonic development were analyzed by examining the expression of the HSC markers runx1 and c-myb. Heat shock induction of a canonical wnt ligand, wnt8, at ten somites led to enhanced HSC formation at 36 hours post fertilization (hpf; 47/54). When wnt8 induction was followed by exposure to indomethacin (10 μM, 16-36 hpf) HSC formation was reduced to or below wild-type levels ( 43/46).
Inducible negative regulators of wnt activity were used in combination with dmPGE2 treatment to functionally localize the interaction between the PG and wnt pathways. Dkk1 antagonizes the wnt pathway at the level of membrane binding and the initiation of the wnt signaling cascade. Dkk induction in hs:dkk1 transgenic embryos inhibited HSC development ( 34/49). Exposure to exogenous dmPGE2 rescued the dkk1-mediated effect on HSC formation ( 28/51, 10 μM, 16-36 hpf). Axin is a central component of the β-catenin destruction complex and thus a negative regulator of the wnt signaling cascade in the cytosolic compartment. […] Similarly, a dominant-negative form of the β-catenin transcriptional co-activator TCF abolished HSC formation ( 60/62), and no rescue was affected via dmPGE2 exposure.
The wnt pathway can actively enhance HSC proliferation through signaling from the HSC niche as well as within HSCs themselves. PGE2 regulates HSC formation at the level of the vascular niche as well as within the HSCs. North et al., 2007. In order to identify transcriptional programs regulated by the wnt signaling pathway, genes involved in HSC development were analyzed by qPCR.
The functional interaction of signaling processes in the zebrafish, down stream from PG, was explored by increasing camp production using forskolin and inhibiting PKA with H89. […] Furthermore, the rescue of dkk effects by dmPGE2 was eliminated by H89.
Heat shock activation/repression of wnt signaling: Embryonic heat-shock experiments were conducted at 38° C. for a duration of 20 minutes unless otherwise noted. Genotype was determined by the presence of GFP fluorescence at three hours post heat-induction, non-fluorescence (wild-type) siblings were used as controls.
(§1) In situ hybridization: Paraformaldehyde (PFA)-fixed embryos were processed for in situ hybridization using standard zebrafish protocols such as those found on the internet at, for example, ZFIN: The Zebrafish Model Organism Database (hosted by the Univ. Oregon, Eugene, Oreg.). The following RNA probes were used to detect alterations in endodermal and liver development: GFP, LFABP, sterol carrier protein, transferrin, foxA3, insulin, trypsin, and IFABP. Changes in expression compared to wild-type controls are reported as the # altered/# scored per genotype; a minimum of three independent experiments were conducted per analysis.

wnt activity = wnt activity in TOP:dGFP wnt reporter zebrafish embryos (in situ hybridization and qPCR for GFP); assay type: in vivo; details: for wnt activity in the developing brain, liver and gut: developing zebrafish, TOP:dGFP
Excerpt: An embodiment of the present invention provides for manipulation of the genetic interaction between PGE2 and wnt/β-catenin signaling, which regulates developmental specification of stem cells and regeneration. Briefly, prostaglandin (PG) E2 is required for the formation and function of hematopoietic stem cells (HSCs) in vivo, yet its mechanism of action in these cells is not completely understood.
The following RNA probes were used to detect alterations in endodermal and liver development: GFP, LFABP, sterol carrier protein, transferrin, foxA3, insulin, trypsin, and IFABP. Changes in expression compared to wild-type controls are reported as the # altered/# scored per genotype; a minimum of three independent experiments were conducted per analysis.

adult zebrafish liver = assay: liver regeneration and wound healing after 1/3 partial hepatectomy in adult zebrafish; assay type: in vivo; details: for wound healing at the incision site: skin wounds following partial hepatectomy
Excerpt: Following ⅓ partial hepatectomy, the zebrafish liver regenerates within five days to seven days.
As many molecular pathways controlling embryonic development mediate tissue homeostasis in the adult, the effects of prostaglandin signaling during liver regeneration were examined. […] Fish were revived and allowed to heal in fish water.
To test the requirement of functional prostaglandin signaling during regeneration, fish were exposed to the dual-specific cox inhibitor, indomethacin, from hour 6 to hour 18 following partial hepatectomy.
Liver Resection: Folling administration of tricaine anesthetic, ⅓ partial hepaectomy of the adult zebrafish liver was performed under brightfield imaging on a dissection microscope. An incision was made using microdissection scissors posterior to the heart on the left lateral portion of the abdomen.

[5] = tested on: stem and progenitor cell population; assay: hematopoietic recovery following irradiation in the adult zebrafish (kidney marrow); assay type: in vivo; details: zebrafish
Method: It has been hypothesized that wnt activation regulates HSC self-renewal and repopulation. Wnt activation is also thought to be involved in carcinogenesis, however, making the concept of direct enhancement of wnt signaling problematic. Whether regulation of wnt activity by prostaglandin can effectively modulate HSC homeostasis in the adult, was determined by observing hematopoietic recovery following irradiation in the zebrafish. […] APCMin/+ mice have elevated β-catenin levels due to loss of APC function in the destruction complex.

[6] = tested on: endodermal and hepatic progenitor cells; assay: endodermal progenitors (foxA3) and liver size (lfabp) in zebrafish embryos, in situ hybridization; assay type: in vivo
Excerpt: To determine whether the interaction of PGE2 and wnt/β-catenin signaling is a conserved regulator of stem and progenitor cell populations in other tissues, endodermal and hepatic progenitor cells were examined during zebrafish development. […] ( 51/56), as detected by expression of liver fatty acid binding protein (lfabp). […] This finding is supported by the detection of various components of PGE2 signaling in foxA3 positive cells.
The APC mutant zebrafish to model constitutive activation of the wnt signaling pathway, was used to characterize the effects of the wnt/PG interaction in foxA3+ endodermal progenitors at 48 hpf. APC+/− embryos have enhanced foxA3 expression and an increased liver bud ( 88/93) as well as increased liver size ( 68/75) compared to wild-type siblings. […] Both cyclinD1 and cmyc were co-regulated by wnt and prostaglandin during development which may indicate that PGE2 exerts its effects on stem cells through enhanced cell cycling and proliferation.
as §1

Molecule: CCCCC[C@H](O)/C=C/[C@H]1[C@H](O)CC(=O)[C@@H]1C/C=C/CCCC(=O)O (relative stereo) [5-trans PGE2]
- toxicity noted in liver growth chart (liver growth [1]): toxic

Molecule: C[C@]12CC[C@@H]3c4ccc(O)cc4CC[C@H]3[C@@H]1CC[C@@H]2O [3-estradiol]
- effect on liver growth (liver growth [2]): inhibited

Molecule: CC1=C(/C=C/C(C)=C/C=C/C(C)=C/C(=O)O)C(C)(C)CCC1 [All-trans retinoic acid]
- effect on liver growth (liver growth [2]): enhanced

Molecule: O=C1Nc2cc(Br)ccc2/C1=C1/Nc2ccccc2/C1=N\O [BIO]
- CFU-S12 increase ([3]; BIO 0.05 mg/kg, p=0.03): 2 fold
- early spleen colony formation following bone marrow transplantation ([3]; FIG. 11 legend): enhances early spleen colony formation

Molecule: CC1=C(/C=C/C(C)=C/C=C/C(C)=C/C=C/C=C(C)/C=C/C=C(C)/C=C/C2=C(C)CCCC2(C)C)C(C)(C)CCC1 [Beta-Carotene]
- effect on liver growth (liver growth [2]): inhibited

Molecule: O=S(=O)(NCCNC/C=C/c1ccc(Br)cc1)c1cccc2cnccc12 [H89]
- effect on increased HSC formation induced by dmPGE2 ([4]; PKA inhibition): reduced the increased HSC formation
- effect on the rescue of dkk effects by dmPGE2 ([4]; PKA inhibition): eliminated

Molecule: CCCCC[C@H](O)/C=C/[C@H]1[C@H](O)CC(=O)[C@@H]1C/C=C\CCCC(=O)O [PGE2, Prostaglandin E2]
- wnt activity in the developing brain, liver and gut (wnt activity): increased wnt activity
- wound healing at the incision site (adult zebrafish liver): heal faster and to a greater extent

Molecule: CC1=C(/C=C/C(C)=C/C=C/C(C)=C/CO)C(C)(C)CCC1 [Retinol]
- effect on liver growth (liver growth [2]): enhanced

Molecule: CCCCC(C)(C)[C@H](O)/C=C/[C@H]1[C@H](O)CC(=O)[C@@H]1C/C=C\CCCC(=O)O [dmPGE2, dimethyl-prostaglandin E2]
- wnt-active cells in the aorta-gonad mesonephros (AGM) (wnt activity; 10 μM, vs. 3±1.8 cells): 12±3.4 cells
- wnt activity in the developing brain, liver and gut (wnt activity): enhance wnt signaling
- induction of wnt activity, qPCR for GFP (wnt activity; whole embryo extracts): 2 fold
- rescue of axin-mediated inhibition of HSC formation ([4]; axin induced at ten somites): could not be overcome
- rescue of dominant-negative TCF-mediated loss of HSC formation ([4]; dnTCF induction): no rescue
- rescue of dkk1-mediated effect on HSC formation (# altered/# scored) ([4]; hs:dkk1 embryos, 10 μM, 16-36 hpf): 28/51
- effects of wnt8/dkk1 induction on runx1, cmyb, flk1, ephB2 expression (qPCR) ([4]; indomethacin added to wnt8, dmPGE2 added to dkk1): could be modified
- kidney marrow repopulation following injury [5]: enhance kidney marrow repopulation
- enhanced endodermal progenitors (# altered/# scored) ([6]; APC+/− embryos): 47/54
- enhanced liver size (# altered/# scored) ([6]; APC+/− embryos): 75/81
- rescue of liver growth inhibited by morpholino knock-down of cox1 or cox2 ([6]; exogenous dmPGE2): rescued fully
- expanded foxA3 population with increased liver anlage (# altered/# scored) ([6]; wild-type embryos): 75/83
- increased liver size (# altered/# scored) ([6]; wild-type embryos): 88/92
- liver size / liver development compared to controls ([6]; zebrafish embryos, by 72 hours post-fertilization): enhanced liver development
- liver vascularity (adult zebrafish liver; compared to untreated fish): increases in liver vascularity
- liver regrowth compared to controls (adult zebrafish liver; exposure following resection (indomethacin hour 6 to 18; day 1 and day 3)): enhanced liver regrowth
- complete regeneration of the liver (adult zebrafish liver; indomethacin: by day 5 post-resection): faster complete regeneration
- wound healing at the incision site (adult zebrafish liver): more rapid wound healing

Molecule: BMS189453
- effect on liver growth (liver growth [2]): inhibited

Molecule: Vitamin D
- effect on liver growth (liver growth [2]): enhanced
